# According to the Kinase Knowledgebase extract (Sharma et al. 2016):
# Values joined by “and” are separate entries in the source; they are usually repeats but may differ in a detail not shown here. Equal values may be shown once.
# Target: PIK3CD (Human) (UniProt O00329)
# Test: Enzyme Assay
# PIK3CD (Human), sequence (O00329 whole entry, looked up): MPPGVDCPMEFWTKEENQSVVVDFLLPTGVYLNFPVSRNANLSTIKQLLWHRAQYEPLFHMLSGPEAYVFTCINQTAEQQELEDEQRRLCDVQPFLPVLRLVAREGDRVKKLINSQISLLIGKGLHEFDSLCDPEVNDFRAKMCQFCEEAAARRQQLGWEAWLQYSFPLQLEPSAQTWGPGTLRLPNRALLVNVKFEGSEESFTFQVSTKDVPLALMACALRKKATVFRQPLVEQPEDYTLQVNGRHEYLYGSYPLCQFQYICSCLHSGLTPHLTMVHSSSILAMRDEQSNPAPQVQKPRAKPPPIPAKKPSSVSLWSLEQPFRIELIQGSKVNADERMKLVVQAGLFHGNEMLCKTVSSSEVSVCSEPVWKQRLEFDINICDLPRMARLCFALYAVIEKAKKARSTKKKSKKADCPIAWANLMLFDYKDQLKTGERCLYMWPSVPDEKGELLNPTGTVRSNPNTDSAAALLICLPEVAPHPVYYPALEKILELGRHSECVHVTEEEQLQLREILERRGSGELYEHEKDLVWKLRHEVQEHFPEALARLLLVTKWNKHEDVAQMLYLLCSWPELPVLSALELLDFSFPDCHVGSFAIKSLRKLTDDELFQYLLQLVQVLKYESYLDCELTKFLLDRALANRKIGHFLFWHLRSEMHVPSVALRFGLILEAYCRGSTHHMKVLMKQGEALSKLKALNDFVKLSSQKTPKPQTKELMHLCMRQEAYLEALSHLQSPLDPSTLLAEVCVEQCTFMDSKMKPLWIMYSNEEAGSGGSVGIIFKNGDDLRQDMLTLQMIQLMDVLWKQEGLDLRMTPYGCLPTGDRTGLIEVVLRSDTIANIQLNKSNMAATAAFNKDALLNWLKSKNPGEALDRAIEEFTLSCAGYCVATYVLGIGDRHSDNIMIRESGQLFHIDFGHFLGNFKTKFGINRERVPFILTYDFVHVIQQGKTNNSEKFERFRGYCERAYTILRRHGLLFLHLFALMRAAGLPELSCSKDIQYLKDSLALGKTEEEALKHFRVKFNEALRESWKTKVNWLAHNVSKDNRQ
row,SMILES,IC50
1,Cn1c(-c2ccc3[nH]ncc3c2)nc2c(O[C@H]3CCN(C(=O)OC(C)(C)C)C3)ncnc21,35 nM
2,CCn1ncc(-c2nc3c(O[C@H]4CCN(C(=O)C5CC(F)(F)C5)C4)ncnc3n2C)c1C,13 nM
3,CCn1c(-c2cnc(C)nc2)nc2c(O[C@H]3CCN(C(=O)N4CCCCC4)C3)ncnc21,21 nM
4,CCCN1CC[C@H](Oc2ncnc3c2nc(-c2cnn(CC)c2C)n3C)C1,380 nM
5,CCn1c(-c2cnc(C)nc2)nc2c(O[C@@H]3CCN(C(=O)N4CC(F)(F)C4)C3)ncnc21,5.9 nM
6,CCn1c(-c2ccc(OC)nc2)nc2c(O[C@H]3CCN(C(=O)C4CC4)C3)ncnc21,1 nM
7,CCn1ncc(-c2nc3c(O[C@H]4CCN(S(=O)(=O)c5ccccc5)C4)ncnc3n2C)c1C,360 nM
8,CCn1c(-c2cnc(C)nc2)nc2c(OC3CCN(C(=O)N(C)c4ccccc4)CC3)ncnc21,46 nM
9,CCn1ncc(-c2nc3c(O[C@H]4CCN(C(=O)c5cc(C)[nH]n5)C4)ncnc3n2C)c1C,28 nM
10,CCn1ncc(-c2nc3c(O[C@H]4CCN(C(=O)NC(C)C)C4)ncnc3n2C)c1C,9.2 nM
11,CCC(=O)N1CC[C@H](Oc2ncnc3c2nc(-c2ccc(OC)nc2)n3C)C1,10 nM
12,CCn1c(N(C)CC(C)C)nc2c(O[C@H]3CCN(C(=O)OC(C)(C)C)C3)ncnc21,150 nM
13,CCn1ncc(-c2nc3c(O[C@H]4CCN(C(=O)C5(C)CCOCC5)C4)ncnc3n2C)c1C,28 nM
14,CCC(=O)N1CC[C@H](Oc2ncnc3c2nc(-c2ccc(OC)c(C)c2)n3C)C1,4.6 nM
15,CCn1ncc(-c2nc3c(O[C@@H]4CCN(C(=O)C5CCOCC5)C4)ncnc3n2C)c1C,1600 nM
16,CCC(=O)N1CC[C@H](Oc2ncnc3c2nc(-c2cnn(-c4ccccc4)c2C)n3C)C1,3.6 nM
17,COC1CC(c2nc3c(O[C@H]4CCN(C(=O)OC(C)(C)C)C4)ncnc3n2C)C1 (some centres undefined),2100 nM
18,CCn1ncc(-c2nc3c(OC4CCN(C(=O)c5ccccc5)CC4)ncnc3n2C)c1C,960 nM
19,CCn1c(-c2cnc(OC)c(Cl)c2)nc2c(O[C@H]3CCN(C(=O)C4CC4)C3)ncnc21,< 1 nM
20,CCn1c(N2CCC(c3ccccc3)CC2)nc2c(O[C@H]3CCN(C(=O)OC(C)(C)C)C3)ncnc21,120 nM
21,CCn1ncc(-c2nc3c(O[C@H]4CCN(C(=O)c5cn(C)nc5C(F)(F)F)C4)ncnc3n2C)c1C,68 nM
22,CCn1c(-c2cnc(C)nc2)nc2c(O[C@H]3CCN(c4ccccc4C)C3)ncnc21,85 nM
23,CCn1ncc(-c2nc3c(O[C@H]4CCN(c5nccc6sccc56)C4)ncnc3n2C)c1C,10 nM

row,SMILES,IC50
1,CCn1c(-c2ccc(OC(F)(F)F)cc2)nc2c(O[C@H]3CCN(C(=O)C4CC4)C3)ncnc21,9.3 nM
2,CCn1c(-c2cnc(C)nc2)nc2c(O[C@H]3CCN(C(=O)[C@@H](N)C(C)C)C3)ncnc21,9.8 nM
3,CCn1ncc(-c2nc3c(S[C@H]4CCN(C(=O)C5CC5)C4)ncnc3n2C)c1C,3.8 nM
4,CCn1ncc(-c2nc3c(O[C@H]4CCN(C(=O)c5ccn(C)n5)C4)ncnc3n2C)c1C,2.2 nM
5,CCn1c(-c2cnc(C)nc2)nc2c(O[C@H]3CCN(C(=O)C4CC4)[C@@H]3C)ncnc21,2.8 nM
6,CCn1c(-c2cnc(C)nc2)nc2c(O[C@H]3CCN(c4ccccn4)C3)ncnc21,1.7 nM
7,CCC(=O)N1CC[C@H](Oc2ncnc3c2nc(CC(C)C)n3CC)C1,240 nM
8,CCn1c(-c2cnc(OC)c(F)c2)nc2c(O[C@H]3CCN(C(=O)c4ccn(C)n4)C3)ncnc21,< 1 nM
9,CCn1ncc(-c2nc3c(O[C@H]4CCN(c5cc(-n6cc(C)cn6)ncn5)C4)ncnc3n2C)c1C,160 nM
10,CC[C@@H]1CN(C(=O)OCc2ccccc2)C[C@H]1Oc1ncnc2c1nc(-c1cnc(C)nc1)n2CC.CC[C@H]1CN(C(=O)OCc2ccccc2)C[C@@H]1Oc1ncnc2c1nc(-c1cnc(C)nc1)n2CC,90 nM
11,CCC(=O)N1CC[C@H](Oc2ncnc3c2nc(-c2ccc(Cl)nc2)n3C)C1,16 nM
12,CCn1ncc(-c2nc3c(O[C@H]4CCCN(C(=O)OC(C)(C)C)C4)ncnc3n2C)c1C,94 nM
13,CCn1c(-c2cnc(C)nc2)nc2c(O[C@H]3CCN(C(=O)[C@@H]4CCC[C@H]4N)C3)ncnc21,39 nM
14,CCn1c(-c2cnc(OC)c(C)c2)nc2c(O[C@H]3CCN(C(=O)OC(C)(C)C)C3)ncnc21,0.7 nM
15,CCC(=O)N1CCC(Cc2ncnc3c2nc(-c2cnn(CC)c2C)n3C)C1 (centres undefined),250 nM
16,Cn1c(-c2ccc(N3CCOCC3)nc2)nc2c(O[C@H]3CCN(C(=O)OC(C)(C)C)C3)ncnc21,4400 nM
17,CCn1c(-c2ccc(C(F)(F)F)nc2)nc2c(O[C@H]3CCN(C(=O)N4CC(OC)C4)C3)ncnc21,< 1 nM
18,CCC(=O)N1CC[C@H](Oc2ncnc3c2nc(Oc2cccc(C)c2C)n3C)C1,2400 nM
19,CCn1ncc(-c2nc3c(O[C@H]4CCN(C(=O)C5CCC5)C4)ncnc3n2C)c1C,7 nM
20,CCn1c(C(=O)NCC(F)(F)F)nc2c(O[C@H]3CCN(C(=O)OC(C)(C)C)C3)ncnc21,31 nM
21,CCC(=O)N1CC[C@H](Oc2ncnc3c2nc(-c2cnc(C)nc2)n3CC)C1,13 nM
22,CC[C@@H]1CN(C(=O)C2CC2)C[C@H]1Oc1ncnc2c1nc(-c1cnc(C)nc1)n2CC.CC[C@H]1CN(C(=O)C2CC2)C[C@@H]1Oc1ncnc2c1nc(-c1cnc(C)nc1)n2CC,6.1 nM and 20 nM
23,CCn1c(-c2cnc(C)nc2)nc2c(O[C@H]3CN(C(=O)C4CC4)C[C@@H]3O)ncnc21,17 nM

row,SMILES,IC50
1,CCC(=O)N1CC[C@H](Oc2ncnc3c2nc(-c2cnc4[nH]ccc4c2)n3C)C1,19 nM
2,CCn1c(-c2cnc(OC)c(C#N)c2)nc2c(O[C@H]3CCN(C(=O)C4CC4)C3)ncnc21,2.4 nM
3,CCn1ncc(-c2nc3c(O[C@H]4CCN(C(=O)Oc5ccc(OC)cc5)C4)ncnc3n2C)c1C,65 nM
4,CCC(=O)N1CC[C@H](Oc2ncnc3c2nc(-c2cnc4[nH]nc(C)c4c2)n3C)C1,23 nM
5,CCn1ncc(-c2nc3c(S[C@H]4CCN(C(=O)OCC(C)C)C4)ncnc3n2C)c1C,30 nM
6,CCn1c(-c2cnc(C)nc2)nc2c(OC3CN(C(=O)C4CC4)CC3C)ncnc21 (centres undefined),2.9 nM
7,CCn1ncc(-c2nc3c(O[C@H]4CCN(C(=O)c5c(C)noc5C)C4)ncnc3n2C)c1C,88 nM
8,CC(=O)Nc1ccc(-c2nc3c(O[C@H]4CCN(C(=O)OC(C)(C)C)C4)ncnc3n2C)cc1,140 nM
9,CCn1ncc(-c2nc3c(O[C@H]4CCN(C(=O)c5cc6n(n5)CCC6)C4)ncnc3n2C)c1C,76 nM
10,CCn1c(N(C)CCOC)nc2c(O[C@H]3CCN(C(=O)OC(C)(C)C)C3)ncnc21,920 nM
11,CCn1ncc(-c2nc3c(O[C@H]4CCN(c5ncnc6c5cnn6C)C4)ncnc3n2C)c1C,120 nM
12,CCn1ncc(-c2nc3c(O[C@H]4CCN(C(=O)CC#N)C4)ncnc3n2C)c1C,38 nM
13,CCn1c(-c2cnc(C)nc2)nc2c(O[C@H]3CCN(C(=O)N4CC(O)C4)C3)ncnc21,4.3 nM
14,CCn1c(-c2cnc(C)nc2)nc2c(O[C@H]3CCN(C(=O)C4CC4)C3)ncnc21,2.8 nM
15,CCn1ncc(-c2nc3c(O[C@H]4CCN(c5nncc6ccccc56)C4)ncnc3n2C)c1C,17 nM
16,CCC(=O)N1CC[C@H](Oc2ncnc3c2nc(-c2cnc(OC)c(NS(C)(=O)=O)c2)n3C)C1,2 nM
17,CCn1ncc(-c2nc3c(O[C@H]4CCN(C(=O)c5cn(C)nn5)C4)ncnc3n2C)c1C,5.2 nM
18,CCC(=O)N1CC[C@H](Oc2ncnc3c2nc(Oc2ccc(OC)c(F)c2)n3C)C1,120 nM
19,CCn1ncc(-c2nc3c(O[C@H]4CCN(C(C)c5ccccc5)C4)ncnc3n2C)c1C (some centres undefined),270 nM
20,CCn1ncc(-c2nc3c(S(=O)(=O)[C@H]4CCN(C(=O)C5CCOCC5)C4)ncnc3n2C)c1C,960 nM
21,CCn1ncc(-c2nc3c(O[C@H]4CCN(C(=O)c5cncn5C)C4)ncnc3n2C)c1C,5.4 nM
22,CCn1c(-c2cnc(C)nc2)nc2c(O[C@H]3CCN(C(=O)N4CCC(C)(O)C4)C3)ncnc21 (some centres undefined),7.3 nM
23,CCn1c(C(=O)NCC2CC2)nc2c(O[C@H]3CCN(C(=O)OC(C)(C)C)C3)ncnc21,150 nM

row,SMILES,IC50
1,CCn1c(-c2cnc(C)nc2)nc2c(O[C@H]3CCN(C(=O)OC(C)(C)C)C3)ncnc21,8.3 nM
2,CCn1c(-c2cnn(-c3ccccc3)c2C)nc2c(O[C@H]3CCN(C(=O)C4CC4)C3)ncnc21,< 1 nM
3,CCn1c(-c2cnc(N)c(C(F)(F)F)c2)nc2c(O[C@H]3CCN(C(=O)C4CC4)C3)ncnc21,1.1 nM
4,CCn1c(-c2cnc(C)nc2)nc2c(O[C@H]3CCN(C(=O)C4CNC4)C3)ncnc21,70 nM
5,CCC(=O)N1CC[C@H](Oc2ncnc3c2nc(C2=CCOCC2)n3CC)C1,93 nM
6,CCn1ncc(-c2nc3c(O[C@H]4CCN(c5ncnc6ccsc56)C4)ncnc3n2C)c1C,12 nM
7,CCc1nc(C)c(C(=O)N2CC[C@H](Oc3ncnc4c3nc(-c3cnn(CC)c3C)n4C)C2)o1,12 nM
8,CCn1ncc(-c2nc3c(O[C@H]4CCN(C(=O)C5CCCO5)C4)ncnc3n2C)c1C (some centres undefined),12 nM
9,CCn1ncc(-c2nc3c(O[C@H]4CCN(C(=O)C5CCOCC5)C4)ncnc3n2CC)c1C,< 1 nM
10,CCn1c(-c2cnc(C)c(F)c2)nc2c(O[C@H]3CCN(C(=O)C4CC4)C3)ncnc21,4.3 nM
11,CCn1c(-c2cnc(OC)c(F)c2)nc2c(O[C@H]3CCN(C(=O)C4CC(F)(F)C4)C3)ncnc21,< 1 nM
12,CCn1ncc(-c2nc3c(O[C@H]4CCN(C(=O)c5conc5C)C4)ncnc3n2C)c1C,14 nM
13,CCn1c(-c2cnc(C)nc2)nc2c(OC3CN(Cc4ccccc4)CC3(C)C)ncnc21 (centres undefined),28 nM
14,CCn1ncc(-c2nc3c(O[C@H]4CCN(C(=O)c5cc6ncccc6[nH]5)C4)ncnc3n2C)c1C,1900 nM
15,CCC(=O)N1CC[C@H](Oc2ncnc3c2nc(-c2cnn(CC)c2C)n3C2CC2)C1,160 nM
16,CCn1ncc(-c2nc3c(O[C@H]4CCN(C(=O)c5cnoc5C(C)C)C4)ncnc3n2C)c1C,41 nM
17,CCn1ncc(-c2nc3c(S[C@H]4CCN(c5ncnc6sccc56)C4)ncnc3n2C)c1C,5.5 nM
18,CCC(=O)N1CC[C@H](Oc2ncnc3c2nc(-c2cnn(CC)c2C)n3CC)C1,0.6 nM
19,CCn1ncc(-c2nc3c(O[C@H]4CCN(c5ncnc6sc(C)c(C)c56)C4)ncnc3n2C)c1C,19 nM
20,Cn1c(-c2ccc(-n3ccnc3)cc2)nc2c(O[C@H]3CCN(C(=O)OC(C)(C)C)C3)ncnc21,330 nM
